Test results: patent US20230270714A1, “SALVINORIN COMPOSITIONS” (priority 2021, published 2023)
Values after ≈ are worked out from the molar mass of the structure shown. Values joined by “and” are separate entries in the source; they are usually repeats but may differ in a detail not shown here. Identical values can stand only once.

Tests used:
[1] = Solubility of Salvinorin A API and Salvinorin A loaded buccal films in 10 mM PBS pH 7; type: physicochemical
Method: After 3 hours samples were filtered through 0.45/0.22 micron filter and tested for content by HPLC analysis.

[2] = Salvinorin A solubility in polar aprotic solvents; type: physicochemical
Method: In Table 9 below the solubility of Salvinorin A in polar aprotic solvents was evaluated by increasing the amount of Salvinorin A in the candidate solvents.

[3] = Pharmacokinetics of subcutaneous Salvinorin A in rats, first experiment (in 1-methyl-2-pyrrolidine, polyethylene glycol 400 1:9 v/v); type: in vivo, male Sprague-Dawley rats
Method: A series of experiments were conducted in order to evaluate the pharmacokinetics of injectable Salvinorin A compositions in rats. In the first experiment Salvinorin A was formulated at two different dose concentrations (5 mg/mL and 20 mg/mL Salvinorin A in 1-methyl-2-pyrrolidine, polyethylene glycol 400 at a 1:9 v/v ratio) and administered via injection (subcutaneous) to two groups of male Sprague-Dawley rats.

[4] = Pharmacokinetics of subcutaneous Salvinorin A in rats, Day 1 and Day 8 (in 1-methyl-2-pyrrolidine, polyethylene glycol 400 1:9 v/v); type: in vivo, Sprague-Dawley rats; conditions: for time to peak plasma concentration (Tmax): summary of two separate studies
Method: In another experiment Salvinorin A was formulated at three different dose concentrations (1 mg/mL, 5 mg/mL, and 10 mg/mL Salvinorin A in 1-methyl-2-pyrrolidine, polyethylene glycol 400 at a 1:9 v/v ratio) and administered via injection (subcutaneous) to three groups of Sprague-Dawley rats (each group including female and male rats). The formulation containing 10 mg/mL Salvinorin A was administered as two injections at separate dosage sites (total dose of 100 mg/kg). The same groups of rats were administered a second dose of the injectable composition 7 days after the first dosing.

[5] = administered orally, even at higher doses; cited from earlier work
[6] = Solubility of Salvinorin A in solubilizer oils (HPLC)
[7] = Solubilization of Salvinorin A mixed with solubilizers in water (supersaturated mixtures, HPLC)
[8] = Group 1, 25 mg/kg subcutaneous, Mean
[9] = Group 1, 25 mg/kg subcutaneous, individual rats 0, 1, 2, 25 mg/kg
[10] = Group 2, 100 mg/kg subcutaneous, Mean
[11] = Group 2, 100 mg/kg subcutaneous, individual rats 3, 4, 5, 100 mg/kg
[12] = Day 1, Group 10, 5 mg/kg subcutaneous, Mean of M and F
[13] = Day 1, Group 10, 5 mg/kg subcutaneous, Sex F
[14] = Day 1, Group 10, 5 mg/kg subcutaneous, Sex M
[15] = Day 1, Group 11, 25 mg/kg subcutaneous, Mean of M and F
[16] = Day 1, Group 11, 25 mg/kg subcutaneous, Sex F
[17] = Day 1, Group 11, 25 mg/kg subcutaneous, Sex M
[18] = Day 1, Group 12, 100 mg/kg subcutaneous (two injections), Mean of M and F
[19] = Day 1, Group 12, 100 mg/kg subcutaneous (two injections), Sex F
[20] = Day 1, Group 12, 100 mg/kg subcutaneous (two injections), Sex M
[21] = Day 8 (second dose), Group 10, 5 mg/kg subcutaneous, Mean of M and F
[22] = Day 8 (second dose), Group 10, 5 mg/kg subcutaneous, Sex F
[23] = Day 8 (second dose), Group 10, 5 mg/kg subcutaneous, Sex M
[24] = Day 8 (second dose), Group 11, 25 mg/kg subcutaneous, Mean of M and F
[25] = Day 8 (second dose), Group 11, 25 mg/kg subcutaneous, Sex F
[26] = Day 8 (second dose), Group 11, 25 mg/kg subcutaneous, Sex M
[27] = Day 8 (second dose), Group 12, 100 mg/kg subcutaneous (two injections), Mean of M and F
[28] = Day 8 (second dose), Group 12, 100 mg/kg subcutaneous (two injections), Sex F
[29] = Day 8 (second dose), Group 12, 100 mg/kg subcutaneous (two injections), Sex M

COC(=O)[C@@H]1C[C@H](OC(C)=O)C(=O)[C@H]2[C@@]1(C)CC[C@H]1C(=O)O[C@H](c3ccoc3)C[C@]21C [Salvinorin A]
Solubility ([1]; 4 mg equivalent of API powder or film in 10 mL 10 mM PBS, pH 7, 3 hours, filtered, HPLC): 1.8 µg/mL
Solubility (in words) ([1]; 10 mM PBS, pH 7.0): very low solubility
Solubility (Y= soluble, N= not soluble completely) ([2]; DMA, 100 mg/ml): Y (Y= soluble)
Solubility (Y= soluble, N= not soluble completely) ([2]; DMA, 200 mg/ml): N (N= not soluble completely)
Solubility (Y= soluble, N= not soluble completely) ([2]; DMSO, 100 mg/ml): Y (Y= soluble)
Solubility (Y= soluble, N= not soluble completely) ([2]; DMSO, 200 mg/ml): N (N= not soluble completely)
Solubility (Y= soluble, N= not soluble completely) ([2]; NMP, 20 mg/ml): Y (Y= soluble)
Solubility (Y= soluble, N= not soluble completely) ([2]; NMP, 100 mg/ml): Y (Y= soluble)
Solubility (Y= soluble, N= not soluble completely) ([2]; NMP, 200 mg/ml): Y (Y= soluble)
AUC0-00 [3, 8]: 457.0 ng·h/mL
AUClast [3, 8]: 427.3 ng·h/mL
Cmax [3, 8]: 215.3 ng/mL
Tmax [3, 8]: 0.50 h
T½ [3, 8]: 1.5 h
Tmax ([3]; Group 1, 25 mg/kg subcutaneous, individual rats 0, 1, 2): 0.50 h
AUC0-00 [3, 9]: 389 ng·h/mL and 422 ng·h/mL and 560 ng·h/mL
AUClast [3, 9]: 362 ng·h/mL and 405 ng·h/mL and 515 ng·h/mL
Cmax [3, 9]: 209 ng/mL and 213 ng/mL and 224 ng/mL
T½ [3, 9]: 1.00 h and 1.58 h and 1.96 h
AUC0-00 [3, 10]: 419.3 ng·h/mL
AUClast [3, 10]: 395.0 ng·h/mL
Cmax [3, 10]: 183.3 ng/mL
Tmax [3, 10]: 0.7 h
T½ [3, 10]: 1.5 h
AUC0-00 [3, 11]: 365 ng·h/mL and 498 ng·h/mL and 395 ng·h/mL
AUClast [3, 11]: 348 ng·h/mL and 461 ng·h/mL and 376 ng·h/mL
Cmax [3, 11]: 187 ng/mL and 208 ng/mL and 155 ng/mL
Tmax [3, 11]: 1.00 h and 0.50 h
T½ [3, 11]: 0.87 h and 1.91 h and 1.73 h
AUClast [4, 12]: 191 ng·h/mL
Cmax [4, 12]: 67.1 ng/mL
Tmax [4, 12]: 3 h
AUClast [4, 13]: 233 ng·h/mL
Cmax [4, 13]: 75.8 ng/mL
Tlast [4, 13]: 4 h
Tmax [4, 13]: 4 h
AUClast [4, 14]: 148 ng·h/mL
Cmax [4, 14]: 58.4 ng/mL
Tlast [4, 14]: 4 h
Tmax [4, 14]: 2 h
AUClast [4, 15]: 375 ng·h/mL
Cmax [4, 15]: 192 ng/mL
Tmax [4, 15]: 0.75 h
AUClast [4, 16]: 389 ng·h/mL
Cmax [4, 16]: 250 ng/mL
Tlast [4, 16]: 4 h
Tmax [4, 16]: 0.5 h
AUClast [4, 17]: 361 ng·h/mL
Cmax [4, 17]: 135 ng/mL
Tlast [4, 17]: 4 h
Tmax [4, 17]: 1 h
AUC0-00 [4, 18]: 1580 ng·h/mL
AUClast [4, 18]: 1540 ng·h/mL
Cmax [4, 18]: 370 ng/mL
Tmax [4, 18]: 0.075 h
T½ [4, 18]: 4.79 h
AUC0-00 [4, 19]: 1920 ng·h/mL
AUClast [4, 19]: 1870 ng·h/mL
Cmax [4, 19]: 419 ng/mL
Tlast [4, 19]: 24 h
Tmax [4, 19]: 1 h
T½ [4, 19]: 4.80 h
AUC0-00 [4, 20]: 1240 ng·h/mL
AUClast [4, 20]: 1210 ng·h/mL
Cmax [4, 20]: 321 ng/mL
Tlast [4, 20]: 24 h
Tmax [4, 20]: 0.5 h
T½ [4, 20]: 4.78 h
AUClast [4, 21]: 200 ng·h/mL
Cmax [4, 21]: 74.5 ng/mL
Tmax [4, 21]: 2 h
AUClast [4, 22]: 211 ng·h/mL
Cmax [4, 22]: 78.3 ng/mL
Tlast [4, 22]: 4 h
Tmax [4, 22]: 2 h
AUClast [4, 23]: 188 ng·h/mL
Cmax [4, 23]: 70.6 ng/mL
Tlast [4, 23]: 4 h
Tmax [4, 23]: 2 h
(h) [4, 24]: 4.54 h
AUC0-00 [4, 24]: 735 ng·h/mL
AUClast [4, 24]: 723 ng·h/mL
Cmax [4, 24]: 174 ng/mL
Tmax [4, 24]: 0.75 h
(h) [4, 25]: 4.16 h
AUC0-00 [4, 25]: 958 ng·h/mL
AUClast [4, 25]: 946 ng·h/mL
Cmax [4, 25]: 162 ng/mL
Tlast [4, 25]: 24 h
Tmax [4, 25]: 0.5 h
(h) [4, 26]: 4.92 h
AUC0-00 [4, 26]: 512 ng·h/mL
AUClast [4, 26]: 500 ng·h/mL
Cmax [4, 26]: 185 ng/mL
Tlast [4, 26]: 24 h
Tmax [4, 26]: 1 h
(h) [4, 27]: 5.00 h
AUC0-00 [4, 27]: 1420 ng·h/mL
AUClast [4, 27]: 1380 ng·h/mL
Cmax [4, 27]: 341 ng/mL
Tmax [4, 27]: 0.05 h
(h) [4, 28]: 4.80 h
AUC0-00 [4, 28]: 1520 ng·h/mL
AUClast [4, 28]: 1470 ng·h/mL
Cmax [4, 28]: 315 ng/mL
Tlast [4, 28]: 24 h
Tmax [4, 28]: 0.5 h
(h) [4, 29]: 5.20 h
AUC0-00 [4, 29]: 1320 ng·h/mL
AUClast [4, 29]: 1280 ng·h/mL
Cmax [4, 29]: 368 ng/mL
Tlast [4, 29]: 24 h
Tmax [4, 29]: 0.5 h
time to peak plasma concentration (Tmax) ([4]; subcutaneous dosing in the rat at 5 mg/kg): 2 to 4 h
time to peak plasma concentration (Tmax) ([4]; subcutaneous dosing in the rat at 25 and 100 mg/kg): 0.5 h
psychoactive effects [5]: fails to exhibit any psychoactive effects
Solubility (mg/ml) HPLC ([6]; Eucaliptol 5 g, Salvinorin A 12.00 mg): 0.108 mg/mL (≈ 250 µM)
Solubility (mg/ml) HPLC ([6]; L Menthone 5 g, Salvinorin A 10.00 mg): 0.101 mg/mL (≈ 234 µM)
Solubility (mg/ml) HPLC ([6]; Oleyl Alcohol 5 g, Salvinorin A 11.00 mg): 0.065 mg/mL (≈ 150 µM)
Solubility (mg/ml) HPLC ([6]; Peppermint oil 5 g, Salvinorin A 9.90 mg): 0.384 mg/mL (≈ 888 µM)
Solubility (mg/ml) HPLC ([6]; S Limonene 5 g, Salvinorin A 10.00 mg): 0.052 mg/mL (≈ 120 µM)
Solubility (mg/ml) HPLC ([6]; Soybean oil 5 g, Salvinorin A 11.00 mg): 0.032 mg/mL (≈ 74 µM)
Solubility (mg/ml) HPLC ([7]; Benzalkonium chloride (BKC) 50 mg, Salvinorin A 21 mg, water 10 ml): 0.008 mg/mL (≈ 18.5 µM)
Solubility (mg/ml) HPLC ([7]; Poloxamer 407 (Lutrol micro 127 MP) 150 mg, Salvinorin A 21 mg, water 10 ml): 0.008 mg/mL (≈ 18.5 µM)
Solubility (mg/ml) HPLC ([7]; SPAN 60 103.00 mg, Salvinorin A 12.00 mg, water 5 ml): 0.013 mg/mL (≈ 30.1 µM)
Solubility (mg/ml) HPLC ([7]; Sodium Deoxycholate 100 mg, Salvinorin A 22 mg, water 10 ml): 0.078 mg/mL (≈ 180 µM)
Solubility (mg/ml) HPLC ([7]; Sodium dodecyl sulfate (SDS; SLS) 50 mg, Salvinorin A 21 mg, water 10 ml): 0.013 mg/mL (≈ 30.1 µM)
Solubility (mg/ml) HPLC ([7]; TPGS (soluble vitamin E) 100 mg, Salvinorin A 23 mg, water 10 ml): 0.011 mg/mL (≈ 25.4 µM)
